Test results published in paper PMC9005681, “Use of AD Informer Set compounds to explore validity of novel targets in Alzheimer's disease pathology” (Alzheimer's & Dementia : Translational Research & Clinical …, 2022).
Several values for one entry are separate records, joined by “and”; a condition that tells them apart may be missing. Equal values may be shown once.

Experiments:
Test in all cases: PDSP GPCR panel primary binding assays at 10 μM
[1] = biological target: T1, cloned human or rodent CNS receptors, channels, and transporters (PDSP panel) (Homo sapiens, UniProt P28566); details: 5-HT1E, primary assay; for Mean %: mean inhibition; for Inhibition 1: replicate 1; for Inhibition 2: replicate 2; for Inhibition 3: replicate 3; for Inhibition 4: replicate 4
T1 construct: expressed in transfected cells
Method in brief: (§1)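 Competition binding with radiolabeled standard ligands, single 10 μM concentration, four replicates. Targets showing over 50% displacement were followed up with 11-point titrations in triplicate.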

[2] = biological target: T2, cloned human or rodent CNS receptors, channels, and transporters (PDSP panel) (Homo sapiens, UniProt P47898); details: 5-HT5A, primary assay; for Mean %: mean inhibition; for Inhibition 1: replicate 1; for Inhibition 2: replicate 2; for Inhibition 3: replicate 3; for Inhibition 4: replicate 4
T2 construct: expressed in transfected cells
Method in brief: as §1

[3] = biological target: T3, cloned human or rodent CNS receptors, channels, and transporters (PDSP panel) (Homo sapiens, UniProt P35367); details: H1, primary assay; for Mean %: mean inhibition; for Inhibition 1: replicate 1; for Inhibition 2: replicate 2; for Inhibition 3: replicate 3; for Inhibition 4: replicate 4
T3 construct: expressed in transfected cells
Method in brief: as §1

[4] = biological target: T4, cloned human or rodent CNS receptors, channels, and transporters (PDSP panel) (Homo sapiens, UniProt P28223); details: 5-HT2A, primary assay; for Mean %: mean inhibition; for Inhibition 1: replicate 1; for Inhibition 2: replicate 2; for Inhibition 3: replicate 3; for Inhibition 4: replicate 4
T4 construct: expressed in transfected cells
Method in brief: as §1

[5] = biological target: T5, cloned human or rodent CNS receptors, channels, and transporters (PDSP panel) (Homo sapiens, UniProt P21917); details: D4, primary assay; for Mean %: mean inhibition; for Inhibition 1: replicate 1; for Inhibition 2: replicate 2; for Inhibition 3: replicate 3; for Inhibition 4: replicate 4
T5 construct: expressed in transfected cells
T5 sequence (P21917 1-419): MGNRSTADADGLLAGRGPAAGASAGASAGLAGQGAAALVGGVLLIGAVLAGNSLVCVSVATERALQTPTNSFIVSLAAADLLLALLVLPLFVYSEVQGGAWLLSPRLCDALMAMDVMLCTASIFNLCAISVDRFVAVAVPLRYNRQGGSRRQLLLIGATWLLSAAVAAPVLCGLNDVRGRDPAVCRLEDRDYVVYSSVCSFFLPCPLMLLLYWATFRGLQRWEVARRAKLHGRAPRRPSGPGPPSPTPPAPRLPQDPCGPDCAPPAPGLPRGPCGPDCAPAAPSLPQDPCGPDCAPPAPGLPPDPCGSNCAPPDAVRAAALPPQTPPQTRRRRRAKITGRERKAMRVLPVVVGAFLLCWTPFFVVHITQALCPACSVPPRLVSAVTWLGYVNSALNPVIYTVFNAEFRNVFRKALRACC
Method in brief: as §1

[6] = biological target: T6, cloned human or rodent CNS receptors, channels, and transporters (PDSP panel) (Homo sapiens, UniProt P11229); details: M1, primary assay; for Mean %: mean inhibition; for Inhibition 1: replicate 1; for Inhibition 2: replicate 2; for Inhibition 3: replicate 3; for Inhibition 4: replicate 4
T6 construct: expressed in transfected cells
T6 sequence (P11229 1-460): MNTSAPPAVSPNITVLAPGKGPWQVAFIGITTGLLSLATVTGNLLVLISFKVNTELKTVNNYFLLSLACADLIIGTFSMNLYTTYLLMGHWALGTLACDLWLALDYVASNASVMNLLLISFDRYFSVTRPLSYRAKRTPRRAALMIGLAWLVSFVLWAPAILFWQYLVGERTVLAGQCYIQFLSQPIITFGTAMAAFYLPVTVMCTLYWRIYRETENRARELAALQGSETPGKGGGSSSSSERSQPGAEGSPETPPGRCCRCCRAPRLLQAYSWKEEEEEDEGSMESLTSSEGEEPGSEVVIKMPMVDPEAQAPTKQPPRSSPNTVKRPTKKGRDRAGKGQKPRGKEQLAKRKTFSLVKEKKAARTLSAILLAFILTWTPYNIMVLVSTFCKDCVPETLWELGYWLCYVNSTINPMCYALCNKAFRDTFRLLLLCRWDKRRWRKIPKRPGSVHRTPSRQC
Method in brief: as §1

[7] = biological target: T7, cloned human or rodent CNS receptors, channels, and transporters (PDSP panel) (Homo sapiens, UniProt P41145); details: KOR, primary assay; for Mean %: mean inhibition; for Inhibition 1: replicate 1; for Inhibition 2: replicate 2; for Inhibition 3: replicate 3; for Inhibition 4: replicate 4
T7 construct: expressed in transfected cells
Method in brief: as §1

[8] = biological target: T8, cloned human or rodent CNS receptors, channels, and transporters (PDSP panel) (Homo sapiens, UniProt P25021); details: H2, primary assay; for Mean %: mean inhibition; for Inhibition 1: replicate 1; for Inhibition 2: replicate 2; for Inhibition 3: replicate 3; for Inhibition 4: replicate 4
T8 construct: expressed in transfected cells
Method in brief: as §1

[9] = biological target: T9, cloned human or rodent CNS receptors, channels, and transporters (PDSP panel) (Homo sapiens, UniProt P34969); details: 5-HT7A, primary assay; for Mean %: mean inhibition; for Inhibition 1: replicate 1; for Inhibition 2: replicate 2; for Inhibition 3: replicate 3; for Inhibition 4: replicate 4
T9 construct: expressed in transfected cells
Method in brief: as §1

[10] = biological target: T10, cloned human or rodent CNS receptors, channels, and transporters (PDSP panel) (Homo sapiens, UniProt P35372); details: MOR, primary assay; for Mean %: mean inhibition; for Inhibition 1: replicate 1; for Inhibition 2: replicate 2; for Inhibition 3: replicate 3; for Inhibition 4: replicate 4
T10 construct: expressed in transfected cells
Method in brief: as §1

T1 sequence (P28566 whole entry): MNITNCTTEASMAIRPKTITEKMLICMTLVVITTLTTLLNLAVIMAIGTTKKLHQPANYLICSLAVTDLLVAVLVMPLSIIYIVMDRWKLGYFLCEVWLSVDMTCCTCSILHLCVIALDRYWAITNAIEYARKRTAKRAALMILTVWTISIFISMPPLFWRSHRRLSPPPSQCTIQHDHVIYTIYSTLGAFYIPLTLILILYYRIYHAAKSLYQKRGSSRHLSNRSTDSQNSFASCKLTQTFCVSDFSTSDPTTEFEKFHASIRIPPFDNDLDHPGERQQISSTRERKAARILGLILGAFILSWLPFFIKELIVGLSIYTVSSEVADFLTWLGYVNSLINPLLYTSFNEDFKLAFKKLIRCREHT
T9 sequence (P34969 whole entry): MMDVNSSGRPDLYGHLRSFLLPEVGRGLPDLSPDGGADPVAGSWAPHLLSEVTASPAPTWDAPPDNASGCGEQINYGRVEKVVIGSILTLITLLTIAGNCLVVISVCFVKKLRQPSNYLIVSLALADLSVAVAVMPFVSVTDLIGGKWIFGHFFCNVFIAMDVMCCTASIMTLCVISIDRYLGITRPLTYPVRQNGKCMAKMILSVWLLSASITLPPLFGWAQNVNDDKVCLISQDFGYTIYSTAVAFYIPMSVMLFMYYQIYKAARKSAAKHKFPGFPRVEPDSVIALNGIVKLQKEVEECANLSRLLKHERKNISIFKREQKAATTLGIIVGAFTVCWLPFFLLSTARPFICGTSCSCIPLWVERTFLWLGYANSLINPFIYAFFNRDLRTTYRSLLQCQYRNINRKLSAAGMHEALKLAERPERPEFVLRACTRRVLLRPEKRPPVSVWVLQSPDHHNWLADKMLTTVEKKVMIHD
T2 sequence (P47898 whole entry): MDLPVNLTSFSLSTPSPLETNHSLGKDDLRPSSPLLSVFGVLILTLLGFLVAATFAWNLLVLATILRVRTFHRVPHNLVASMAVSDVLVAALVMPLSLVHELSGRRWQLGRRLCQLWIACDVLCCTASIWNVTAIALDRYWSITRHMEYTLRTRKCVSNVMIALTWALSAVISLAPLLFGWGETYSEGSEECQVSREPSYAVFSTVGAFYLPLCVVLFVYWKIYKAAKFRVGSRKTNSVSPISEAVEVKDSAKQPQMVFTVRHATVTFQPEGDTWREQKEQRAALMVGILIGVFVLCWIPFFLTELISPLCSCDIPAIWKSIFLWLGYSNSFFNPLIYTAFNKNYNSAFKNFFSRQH
T8 sequence (P25021 whole entry): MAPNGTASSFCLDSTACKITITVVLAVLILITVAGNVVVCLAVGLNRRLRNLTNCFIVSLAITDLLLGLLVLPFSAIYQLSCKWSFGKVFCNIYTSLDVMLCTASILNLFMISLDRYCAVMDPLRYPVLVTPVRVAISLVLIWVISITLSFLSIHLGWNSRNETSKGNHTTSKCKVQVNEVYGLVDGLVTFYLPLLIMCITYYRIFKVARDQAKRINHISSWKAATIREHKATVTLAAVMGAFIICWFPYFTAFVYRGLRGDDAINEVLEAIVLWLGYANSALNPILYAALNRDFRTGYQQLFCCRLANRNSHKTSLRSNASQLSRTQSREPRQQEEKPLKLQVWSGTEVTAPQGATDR
T3 sequence (P35367 whole entry): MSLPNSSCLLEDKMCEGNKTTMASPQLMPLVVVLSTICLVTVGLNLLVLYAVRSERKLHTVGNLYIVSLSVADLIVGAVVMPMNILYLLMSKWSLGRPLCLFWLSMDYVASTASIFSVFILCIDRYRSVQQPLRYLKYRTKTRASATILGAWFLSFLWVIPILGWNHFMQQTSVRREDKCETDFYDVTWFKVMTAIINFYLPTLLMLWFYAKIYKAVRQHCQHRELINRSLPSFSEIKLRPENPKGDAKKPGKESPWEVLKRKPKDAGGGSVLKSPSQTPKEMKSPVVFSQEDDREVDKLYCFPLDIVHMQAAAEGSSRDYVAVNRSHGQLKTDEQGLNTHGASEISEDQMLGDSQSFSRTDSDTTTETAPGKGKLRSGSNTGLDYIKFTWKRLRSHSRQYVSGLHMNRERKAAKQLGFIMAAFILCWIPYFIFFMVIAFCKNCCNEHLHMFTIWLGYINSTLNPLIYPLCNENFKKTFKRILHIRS
T10 sequence (P35372 whole entry): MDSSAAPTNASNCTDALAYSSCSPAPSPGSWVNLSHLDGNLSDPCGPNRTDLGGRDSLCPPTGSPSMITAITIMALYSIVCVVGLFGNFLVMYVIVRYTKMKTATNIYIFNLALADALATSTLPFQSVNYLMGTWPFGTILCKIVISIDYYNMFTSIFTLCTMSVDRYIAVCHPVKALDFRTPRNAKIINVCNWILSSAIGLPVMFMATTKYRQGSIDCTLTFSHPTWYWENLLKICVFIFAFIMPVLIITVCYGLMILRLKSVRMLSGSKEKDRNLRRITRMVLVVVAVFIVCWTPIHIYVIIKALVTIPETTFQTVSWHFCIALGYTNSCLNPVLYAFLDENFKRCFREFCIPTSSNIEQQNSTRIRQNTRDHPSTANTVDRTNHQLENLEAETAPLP
T4 sequence (P28223 whole entry): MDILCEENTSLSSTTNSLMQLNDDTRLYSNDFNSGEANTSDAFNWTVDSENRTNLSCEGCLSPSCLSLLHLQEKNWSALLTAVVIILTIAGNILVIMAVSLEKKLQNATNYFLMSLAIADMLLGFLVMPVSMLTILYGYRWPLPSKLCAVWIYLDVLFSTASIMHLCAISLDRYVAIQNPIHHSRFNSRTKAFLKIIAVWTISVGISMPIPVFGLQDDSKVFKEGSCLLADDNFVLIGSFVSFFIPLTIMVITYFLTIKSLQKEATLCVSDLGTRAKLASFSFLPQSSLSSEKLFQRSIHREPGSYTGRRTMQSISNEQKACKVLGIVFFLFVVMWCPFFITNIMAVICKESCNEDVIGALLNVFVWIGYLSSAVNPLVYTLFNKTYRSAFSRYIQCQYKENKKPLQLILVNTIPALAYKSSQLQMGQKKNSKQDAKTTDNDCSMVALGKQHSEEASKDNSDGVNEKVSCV
T7 sequence (P41145 whole entry): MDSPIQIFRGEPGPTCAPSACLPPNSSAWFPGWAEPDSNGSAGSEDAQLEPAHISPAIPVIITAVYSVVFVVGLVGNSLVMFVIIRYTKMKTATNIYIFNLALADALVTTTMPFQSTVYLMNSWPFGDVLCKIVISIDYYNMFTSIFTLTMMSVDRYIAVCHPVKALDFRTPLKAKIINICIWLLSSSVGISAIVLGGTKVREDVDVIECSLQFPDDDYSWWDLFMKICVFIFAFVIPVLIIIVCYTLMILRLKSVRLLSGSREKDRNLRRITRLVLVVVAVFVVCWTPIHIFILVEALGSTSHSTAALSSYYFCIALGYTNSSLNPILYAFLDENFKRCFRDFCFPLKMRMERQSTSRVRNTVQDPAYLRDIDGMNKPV

In the case of `CC(=O)N1CCC(NC(=O)NC23CC4CC(CC(C4)C2)C3)CC1` [UNC10302683A, AR9281], the Mean % [1] is reported as -2.2%, the “Inhibition 1” value [1] is reported as 8.11% and the “Inhibition 2” value [1] is reported as -12.87%. For the same compound, the “Inhibition 3” value [1] was -6.96%, the “Inhibition 4” value [1] was 2.94% and the Mean % [2] was -4.79% and -3.44%. The “Inhibition 1” value [2] was 13.38% and 13.31%, the “Inhibition 2” value [2] was 8.95% and -14.87% and the “Inhibition 3” value [2] was -49.4% and -7.36%. For the same compound, the “Inhibition 4” value [2] was 7.91% and -4.85%, the Mean % [3] was 76.51% and the “Inhibition 1” value [3] was 98.85%. The “Inhibition 2” value [3] was 86%, the “Inhibition 3” value [3] was 68.77% and the “Inhibition 4” value [3] was 52.43%. The Mean % [4] was -3.07%, the “Inhibition 1” value [4] was -2.98% and the “Inhibition 2” value [4] was 1.29%. The “Inhibition 3” value [4] was -10.71%, the “Inhibition 4” value [4] was 0.14% and the Mean % [5] was -0.6%. The “Inhibition 1” value [5] was 1.15%, the “Inhibition 2” value [5] was -3.44% and the “Inhibition 3” value [5] was -3.44%. The “Inhibition 4” value [5] was 3.35%, the Mean % [6] was 7.62% and the “Inhibition 1” value [6] was 23.24%. The “Inhibition 2” value [6] was 6.49%, the “Inhibition 3” value [6] was -4.8% and the “Inhibition 4” value [6] was 5.55%. For the same compound, the Mean % [7] was -25.19%, the “Inhibition 1” value [7] was -27.43% and the “Inhibition 2” value [7] was -29%. For the same compound, the “Inhibition 3” value [7] was -23.06%, the “Inhibition 4” value [7] was -21.27% and the Mean % [8] was -19%. The “Inhibition 1” value [8] was 4.92%, the “Inhibition 2” value [8] was -11.17% and the “Inhibition 3” value [8] was -32.29%. For the same compound, the “Inhibition 4” value [8] was -37.45%, the Mean % [9] was 20.3% and the “Inhibition 1” value [9] was 4.73%. The “Inhibition 2” value [9] was 29.98%, the “Inhibition 3” value [9] was 12.78% and the “Inhibition 4” value [9] was 33.7%. The Mean % [10] was 5.26%, the “Inhibition 1” value [10] was 2.55% and the “Inhibition 2” value [10] was 12.43%. For the same compound, the “Inhibition 3” value [10] was 4.76% and the “Inhibition 4” value [10] was 1.31%.
With MDL 28170 [UNC10302675A] the Mean % [1] was -6.22%, the “Inhibition 1” value [1] was -3.13% and the “Inhibition 2” value [1] was -5.37%. The “Inhibition 3” value [1] was -7.3%, the “Inhibition 4” value [1] was -9.09% and the Mean % [2] was -1.67%. The “Inhibition 1” value [2] was -0.61%, the “Inhibition 2” value [2] was -2.73% and the “Inhibition 3” value [2] was -12.06%. The “Inhibition 4” value [2] was 8.72%, the Mean % [3] was 62.36% and the “Inhibition 1” value [3] was 85.46%. The “Inhibition 2” value [3] was 73.14%, the “Inhibition 3” value [3] was 49.84% and the “Inhibition 4” value [3] was 41%. For the same compound, the Mean % [4] was -2.25%, the “Inhibition 1” value [4] was 10.17% and the “Inhibition 2” value [4] was -7.92%. The “Inhibition 3” value [4] was -7.75%, the “Inhibition 4” value [4] was -3.48% and the Mean % [5] was 0.31%. For the same compound, the “Inhibition 1” value [5] was 10.14%, the “Inhibition 2” value [5] was -3.06% and the “Inhibition 3” value [5] was -7.08%. For the same compound, the “Inhibition 4” value [5] was 1.24%, the Mean % [6] was -11.2% and the “Inhibition 1” value [6] was -2.73%. For the same compound, the “Inhibition 2” value [6] was -6.87%, the “Inhibition 3” value [6] was -20.6% and the “Inhibition 4” value [6] was -14.58%. For the same compound, the Mean % [7] was 8.82%, the “Inhibition 1” value [7] was 3.47% and the “Inhibition 2” value [7] was 2.13%. The “Inhibition 3” value [7] was 10.86%, the “Inhibition 4” value [7] was 18.81% and the Mean % [8] was -17.24%. For the same compound, the “Inhibition 1” value [8] was -6.35%, the “Inhibition 2” value [8] was -24.37% and the “Inhibition 3” value [8] was -15.47%. The “Inhibition 4” value [8] was -22.78%, the Mean % [9] was 12.48% and the “Inhibition 1” value [9] was 4.73%. For the same compound, the “Inhibition 2” value [9] was 10.46%, the “Inhibition 3” value [9] was 19.29% and the “Inhibition 4” value [9] was 15.42%. For the same compound, the Mean % [10] was -2.22%, the “Inhibition 1” value [10] was 0.73% and the “Inhibition 2” value [10] was -3.1%. The “Inhibition 3” value [10] was -4.83% and the “Inhibition 4” value [10] was -1.67%.
